Earlier results, collected in patent US5270047A, “Local delivery of dipyridamole for the treatment of proliferative diseases” (priority 1991, dated 1993).

System: vascular restenosis
Conditions: current pharmacologic therapies after PTCA, atherectomy, laser angioplasty, bypass graft surgery; cited from earlier work

Compound	effect for the treatment and prevention of vascular restenosis
low molecular weight heparin	ineffective for the treatment and prevention of vascular restenosis
CC(=O)Oc1ccccc1C(=O)O [aspirin]	ineffective for the treatment and prevention of vascular restenosis
CCCCC[C@H](O)/C=C/[C@@H]1[C@H]2C/C(=C/CCCC(=O)O)O[C@H]2C[C@H]1O [prostacyclin]	ineffective for the treatment and prevention of vascular restenosis
heparin	ineffective for the treatment and prevention of vascular restenosis
O=c1ccc2ccccc2o1 [coumarin]	ineffective for the treatment and prevention of vascular restenosis
